The values that follow come from ChEMBL document CHEMBL5465560, “Selectivity Literature for EUbOPEN Chemogenomic Library” (2024).

For series [1], the target named is Rho-associated protein kinase 1 (Homo sapiens) (UniProt Q13464). The experiment in a line: Selectivity interaction (KinomeScan (DiscoverX)) EUB0000595a ROCK1. To be noted: at 10 µM.
The target of series [2] is T1, Serine/threonine-protein kinase ICK (Homo sapiens) (UniProt Q9UPZ9).
T1 sequence (whole entry): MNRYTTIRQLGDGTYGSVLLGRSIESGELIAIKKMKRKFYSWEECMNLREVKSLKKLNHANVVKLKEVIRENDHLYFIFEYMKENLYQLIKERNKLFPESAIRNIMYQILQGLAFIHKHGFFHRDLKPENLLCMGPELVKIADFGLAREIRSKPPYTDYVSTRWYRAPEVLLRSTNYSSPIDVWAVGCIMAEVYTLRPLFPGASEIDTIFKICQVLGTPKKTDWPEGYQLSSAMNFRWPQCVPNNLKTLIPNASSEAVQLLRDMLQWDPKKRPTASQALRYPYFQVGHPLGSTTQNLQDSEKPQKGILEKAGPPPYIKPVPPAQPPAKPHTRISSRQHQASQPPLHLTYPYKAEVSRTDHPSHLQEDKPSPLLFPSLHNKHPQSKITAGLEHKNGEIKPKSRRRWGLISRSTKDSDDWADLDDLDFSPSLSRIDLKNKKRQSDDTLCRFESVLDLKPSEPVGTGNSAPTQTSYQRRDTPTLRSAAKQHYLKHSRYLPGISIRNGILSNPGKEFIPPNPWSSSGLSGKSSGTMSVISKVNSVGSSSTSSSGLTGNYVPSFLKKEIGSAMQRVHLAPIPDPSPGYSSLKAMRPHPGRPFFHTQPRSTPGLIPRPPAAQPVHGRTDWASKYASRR
Put plainly: Selectivity interaction (KinomeScan (DiscoverX)) EUB0000695a ICK. To be noted: at 100 nM.

For series [3], the target named is Mitogen-activated protein kinase 3 (Homo sapiens, UniProt P27361). Put plainly: Selectivity interaction (KinomeScan (DiscoverX)) EUB0000695a MAPK3. Particulars: at 100 nM.
The target in series [4] is Serine/threonine-protein kinase 10 (Homo sapiens) (UniProt O94804). Put plainly: Selectivity interaction (ActivX KiNativ screen (kinase selectivity in THP-1 cell lysates)) EUB0000639a STK10. The class given is subcellular. To be noted: lysate, at 0.2 µM.
The target in series [5] is Calcium/calmodulin-dependent protein kinase type II subunit delta (Homo sapiens) (UniProt Q13557). The experiment in a line: Selectivity interaction (Kinase panel (DSF assay)) EUB0001559a CAMK2D. In general terms: In DSF a fluorescence change marks the thermal transition of the protein.
For series [6], the target named is T2, Mitogen-activated protein kinase kinase kinase 3 (Homo sapiens) (UniProt Q99759).
T2 sequence (whole entry): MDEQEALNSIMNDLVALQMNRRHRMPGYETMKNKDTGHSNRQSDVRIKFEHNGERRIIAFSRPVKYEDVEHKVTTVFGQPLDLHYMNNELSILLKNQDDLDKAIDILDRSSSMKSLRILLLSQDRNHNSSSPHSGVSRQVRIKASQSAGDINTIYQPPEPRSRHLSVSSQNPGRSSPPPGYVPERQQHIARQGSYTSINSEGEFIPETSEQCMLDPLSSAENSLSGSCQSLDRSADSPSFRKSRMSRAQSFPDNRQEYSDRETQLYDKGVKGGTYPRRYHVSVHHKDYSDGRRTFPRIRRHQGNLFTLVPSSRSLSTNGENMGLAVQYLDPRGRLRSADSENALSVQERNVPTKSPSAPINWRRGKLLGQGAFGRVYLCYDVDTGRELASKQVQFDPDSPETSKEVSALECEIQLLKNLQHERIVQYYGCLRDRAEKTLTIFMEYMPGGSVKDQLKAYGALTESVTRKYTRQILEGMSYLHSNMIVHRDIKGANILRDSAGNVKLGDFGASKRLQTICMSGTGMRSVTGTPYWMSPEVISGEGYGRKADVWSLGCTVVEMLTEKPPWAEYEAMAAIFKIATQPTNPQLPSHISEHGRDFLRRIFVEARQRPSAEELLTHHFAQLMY
Put plainly: Selectivity interaction (ProQinase) EUB0000171b MAP3K3.

Series [7] has as its system Epidermal growth factor receptor (Homo sapiens), P00533 [UNDEFINED MUTATION]. The experiment in a line: Selectivity interaction (KinomeScan (DiscoverX)) EUB0001049a EGFR. Particulars: at 1 µM.
In series [8] the target is T3, Calcium/calmodulin-dependent protein kinase type IV (Homo sapiens) (UniProt Q16566).
T3 sequence (whole entry): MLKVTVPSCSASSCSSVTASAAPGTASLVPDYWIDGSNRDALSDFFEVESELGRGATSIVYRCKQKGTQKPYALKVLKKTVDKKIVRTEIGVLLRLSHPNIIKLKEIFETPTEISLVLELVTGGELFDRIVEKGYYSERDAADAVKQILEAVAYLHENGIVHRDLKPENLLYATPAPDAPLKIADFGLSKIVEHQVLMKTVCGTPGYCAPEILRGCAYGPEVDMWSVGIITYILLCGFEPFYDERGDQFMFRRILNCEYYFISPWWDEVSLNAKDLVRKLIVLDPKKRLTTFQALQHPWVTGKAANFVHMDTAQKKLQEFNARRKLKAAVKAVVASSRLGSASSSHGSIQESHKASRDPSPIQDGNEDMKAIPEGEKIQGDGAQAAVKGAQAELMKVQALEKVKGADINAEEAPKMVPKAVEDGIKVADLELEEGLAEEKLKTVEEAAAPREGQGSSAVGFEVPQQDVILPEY
The experiment in a line: Selectivity interaction (KinomeScan (DiscoverX)) EUB0000655a CAMK4. Particulars: at 10 µM.

Series [9] has as its target STE20/SPS1-related proline-alanine-rich protein kinase (Homo sapiens) (UniProt Q9UEW8). The experiment in a line: Selectivity interaction (KinomeScan (DiscoverX)) EUB0000618a STK39. To be noted: at 10 µM.
For series [10], the target named is Dual specificity protein kinase CLK3 (Homo sapiens, UniProt P49761). Put plainly: Selectivity interaction (KinomeScan (DiscoverX)) EUB0000618a CLK3. Particulars: at 10 µM.
Series [11] has as its target Voltage-dependent L-type calcium channel subunit alpha-1C (Homo sapiens, UniProt Q13936). The experiment in a line: Selectivity interaction (Panel of non-epigenetic targets (kinases, GPCRs, ion channels, and transporters, Eurofins) ) EUB0000271b CACNA1C. To be noted: at 1 µM.
Series [12] concerns the target 5-hydroxytryptamine receptor 1B (Homo sapiens) (UniProt P28222). Put plainly: Selectivity interaction (GPCR panel (PDSP screen)) EUB0001079a HTR1B. To be noted: at 10 µM.
In series [13] the target is Phosphatidylinositol 4-phosphate 5-kinase type-1 alpha (Homo sapiens) (UniProt Q99755). Put plainly: Selectivity interaction (KinomeScan (DiscoverX)) EUB0000229b PIP5K1A. Particulars: at 10 µM.
The target in series [14] is Serine/threonine-protein kinase MRCK beta (Homo sapiens) (UniProt Q9Y5S2). The experiment in a line: Selectivity interaction (KinomeScan (DiscoverX)) EUB0000229b CDC42BPB. Particulars: at 10 µM.

Epidermal growth factor receptor (Homo sapiens), P00533 [UNDEFINED MUTATION], sequence (P00533 whole entry, looked up, change not shown): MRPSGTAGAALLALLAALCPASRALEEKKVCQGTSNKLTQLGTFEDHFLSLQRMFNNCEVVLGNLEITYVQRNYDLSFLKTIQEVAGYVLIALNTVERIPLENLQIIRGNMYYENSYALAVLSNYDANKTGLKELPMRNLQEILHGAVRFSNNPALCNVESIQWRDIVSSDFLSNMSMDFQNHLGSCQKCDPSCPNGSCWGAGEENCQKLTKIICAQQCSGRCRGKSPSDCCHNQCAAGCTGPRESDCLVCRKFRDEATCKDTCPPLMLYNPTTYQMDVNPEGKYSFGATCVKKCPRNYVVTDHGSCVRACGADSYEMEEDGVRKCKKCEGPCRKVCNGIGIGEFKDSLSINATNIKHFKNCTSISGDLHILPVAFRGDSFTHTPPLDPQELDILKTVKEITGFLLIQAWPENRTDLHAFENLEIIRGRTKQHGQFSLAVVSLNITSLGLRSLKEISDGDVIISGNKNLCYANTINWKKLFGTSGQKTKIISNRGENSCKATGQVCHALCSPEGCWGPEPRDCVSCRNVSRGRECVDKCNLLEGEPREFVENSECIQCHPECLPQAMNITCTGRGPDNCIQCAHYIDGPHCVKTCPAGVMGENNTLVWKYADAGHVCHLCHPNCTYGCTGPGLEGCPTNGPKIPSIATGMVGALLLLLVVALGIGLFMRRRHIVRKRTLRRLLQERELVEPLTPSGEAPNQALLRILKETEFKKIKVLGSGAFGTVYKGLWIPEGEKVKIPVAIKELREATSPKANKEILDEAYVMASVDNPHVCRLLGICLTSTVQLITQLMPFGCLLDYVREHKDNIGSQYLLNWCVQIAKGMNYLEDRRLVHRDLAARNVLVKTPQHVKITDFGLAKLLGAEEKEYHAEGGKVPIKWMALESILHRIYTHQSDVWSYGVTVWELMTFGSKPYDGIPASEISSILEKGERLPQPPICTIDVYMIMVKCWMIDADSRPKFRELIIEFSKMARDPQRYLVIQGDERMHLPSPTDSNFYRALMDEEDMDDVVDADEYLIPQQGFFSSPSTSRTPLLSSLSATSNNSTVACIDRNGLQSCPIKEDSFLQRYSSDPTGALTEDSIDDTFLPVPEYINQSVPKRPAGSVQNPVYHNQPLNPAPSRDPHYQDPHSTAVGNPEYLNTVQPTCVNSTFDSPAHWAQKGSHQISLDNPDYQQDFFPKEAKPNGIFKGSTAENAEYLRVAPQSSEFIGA
5-hydroxytryptamine receptor 1B (Homo sapiens), sequence (P28222 whole entry): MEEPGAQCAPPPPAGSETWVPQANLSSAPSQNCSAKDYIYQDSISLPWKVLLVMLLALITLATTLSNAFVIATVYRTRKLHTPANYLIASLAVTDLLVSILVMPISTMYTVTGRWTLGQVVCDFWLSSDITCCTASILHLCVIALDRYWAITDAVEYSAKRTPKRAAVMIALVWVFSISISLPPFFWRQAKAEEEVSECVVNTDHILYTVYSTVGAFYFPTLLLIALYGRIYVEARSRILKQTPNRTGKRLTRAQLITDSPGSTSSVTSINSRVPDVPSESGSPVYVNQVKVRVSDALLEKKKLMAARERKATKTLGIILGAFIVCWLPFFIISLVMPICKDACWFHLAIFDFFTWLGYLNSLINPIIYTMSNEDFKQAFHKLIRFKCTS
Serine/threonine-protein kinase 10 (Homo sapiens), sequence (O94804 whole entry, looked up): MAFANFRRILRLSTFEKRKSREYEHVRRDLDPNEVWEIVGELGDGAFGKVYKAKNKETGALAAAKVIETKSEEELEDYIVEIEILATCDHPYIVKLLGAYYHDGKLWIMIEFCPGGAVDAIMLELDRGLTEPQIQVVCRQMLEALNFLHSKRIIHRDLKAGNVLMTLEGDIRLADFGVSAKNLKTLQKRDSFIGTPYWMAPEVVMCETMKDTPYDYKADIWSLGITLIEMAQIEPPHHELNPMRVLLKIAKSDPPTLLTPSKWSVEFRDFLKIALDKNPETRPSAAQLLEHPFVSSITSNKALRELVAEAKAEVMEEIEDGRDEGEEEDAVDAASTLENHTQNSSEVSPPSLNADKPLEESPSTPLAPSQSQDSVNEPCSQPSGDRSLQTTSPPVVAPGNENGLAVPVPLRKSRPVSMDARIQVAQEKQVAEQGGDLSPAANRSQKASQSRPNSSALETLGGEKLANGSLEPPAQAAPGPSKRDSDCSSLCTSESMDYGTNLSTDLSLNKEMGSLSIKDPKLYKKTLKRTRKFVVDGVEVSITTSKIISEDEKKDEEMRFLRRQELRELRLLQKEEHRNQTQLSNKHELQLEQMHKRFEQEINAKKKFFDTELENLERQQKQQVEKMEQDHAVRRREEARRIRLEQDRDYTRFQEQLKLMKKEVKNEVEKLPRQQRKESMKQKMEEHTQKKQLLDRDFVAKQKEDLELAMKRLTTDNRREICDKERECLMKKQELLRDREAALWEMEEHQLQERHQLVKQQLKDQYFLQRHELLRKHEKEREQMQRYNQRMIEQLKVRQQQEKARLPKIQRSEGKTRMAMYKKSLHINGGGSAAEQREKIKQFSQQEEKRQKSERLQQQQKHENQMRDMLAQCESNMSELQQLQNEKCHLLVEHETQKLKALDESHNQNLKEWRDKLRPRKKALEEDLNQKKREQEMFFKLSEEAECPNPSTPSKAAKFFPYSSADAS
Rho-associated protein kinase 1 (Homo sapiens), sequence (Q13464 2-1354 limits assumed): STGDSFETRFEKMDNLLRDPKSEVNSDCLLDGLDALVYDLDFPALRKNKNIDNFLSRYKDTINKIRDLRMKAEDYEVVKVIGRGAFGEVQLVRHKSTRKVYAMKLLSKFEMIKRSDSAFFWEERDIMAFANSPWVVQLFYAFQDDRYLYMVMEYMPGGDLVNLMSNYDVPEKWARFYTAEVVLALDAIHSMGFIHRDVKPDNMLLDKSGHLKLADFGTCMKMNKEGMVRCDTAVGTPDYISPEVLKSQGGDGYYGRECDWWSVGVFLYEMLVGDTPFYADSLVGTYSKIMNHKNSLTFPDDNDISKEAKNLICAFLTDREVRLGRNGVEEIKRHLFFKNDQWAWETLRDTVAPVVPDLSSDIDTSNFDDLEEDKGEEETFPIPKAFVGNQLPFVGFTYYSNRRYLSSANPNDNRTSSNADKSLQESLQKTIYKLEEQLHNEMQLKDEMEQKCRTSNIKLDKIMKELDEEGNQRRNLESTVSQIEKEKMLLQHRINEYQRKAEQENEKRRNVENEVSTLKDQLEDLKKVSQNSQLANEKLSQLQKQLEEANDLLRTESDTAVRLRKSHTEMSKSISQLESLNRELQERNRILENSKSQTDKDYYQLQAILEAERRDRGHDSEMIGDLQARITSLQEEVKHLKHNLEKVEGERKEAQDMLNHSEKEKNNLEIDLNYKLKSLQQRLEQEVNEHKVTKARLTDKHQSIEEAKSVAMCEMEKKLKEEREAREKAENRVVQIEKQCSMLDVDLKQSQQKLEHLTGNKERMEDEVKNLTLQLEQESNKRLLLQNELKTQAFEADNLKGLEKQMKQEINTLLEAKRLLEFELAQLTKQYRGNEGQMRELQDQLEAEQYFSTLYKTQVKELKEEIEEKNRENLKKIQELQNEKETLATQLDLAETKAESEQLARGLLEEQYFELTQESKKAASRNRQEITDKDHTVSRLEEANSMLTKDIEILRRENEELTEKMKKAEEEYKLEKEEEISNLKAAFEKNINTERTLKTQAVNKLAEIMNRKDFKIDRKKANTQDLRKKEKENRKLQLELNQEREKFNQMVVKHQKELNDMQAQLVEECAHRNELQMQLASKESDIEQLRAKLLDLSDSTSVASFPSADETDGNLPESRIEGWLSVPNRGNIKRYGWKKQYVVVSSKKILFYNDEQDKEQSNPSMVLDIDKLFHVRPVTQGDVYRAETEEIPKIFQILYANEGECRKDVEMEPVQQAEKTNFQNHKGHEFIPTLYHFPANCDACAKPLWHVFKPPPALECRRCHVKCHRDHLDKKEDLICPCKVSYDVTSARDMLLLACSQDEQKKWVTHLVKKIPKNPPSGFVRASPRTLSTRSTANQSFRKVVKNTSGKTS
Dual specificity protein kinase CLK3, sequence (P49761 whole entry, looked up): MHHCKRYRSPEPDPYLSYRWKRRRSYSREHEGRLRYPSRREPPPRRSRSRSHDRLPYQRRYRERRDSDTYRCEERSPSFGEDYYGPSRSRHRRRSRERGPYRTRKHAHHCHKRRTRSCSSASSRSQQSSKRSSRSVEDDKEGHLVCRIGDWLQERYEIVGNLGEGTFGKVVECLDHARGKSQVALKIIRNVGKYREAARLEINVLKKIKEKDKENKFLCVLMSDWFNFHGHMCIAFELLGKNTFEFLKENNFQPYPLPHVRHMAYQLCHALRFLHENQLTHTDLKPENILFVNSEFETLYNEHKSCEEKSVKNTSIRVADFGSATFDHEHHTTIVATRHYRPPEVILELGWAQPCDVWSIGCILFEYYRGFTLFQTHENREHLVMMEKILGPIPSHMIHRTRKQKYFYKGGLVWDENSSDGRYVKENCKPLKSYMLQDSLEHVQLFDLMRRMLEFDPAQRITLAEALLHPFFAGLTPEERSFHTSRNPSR
Phosphatidylinositol 4-phosphate 5-kinase type-1 alpha (Homo sapiens), sequence (Q99755 whole entry): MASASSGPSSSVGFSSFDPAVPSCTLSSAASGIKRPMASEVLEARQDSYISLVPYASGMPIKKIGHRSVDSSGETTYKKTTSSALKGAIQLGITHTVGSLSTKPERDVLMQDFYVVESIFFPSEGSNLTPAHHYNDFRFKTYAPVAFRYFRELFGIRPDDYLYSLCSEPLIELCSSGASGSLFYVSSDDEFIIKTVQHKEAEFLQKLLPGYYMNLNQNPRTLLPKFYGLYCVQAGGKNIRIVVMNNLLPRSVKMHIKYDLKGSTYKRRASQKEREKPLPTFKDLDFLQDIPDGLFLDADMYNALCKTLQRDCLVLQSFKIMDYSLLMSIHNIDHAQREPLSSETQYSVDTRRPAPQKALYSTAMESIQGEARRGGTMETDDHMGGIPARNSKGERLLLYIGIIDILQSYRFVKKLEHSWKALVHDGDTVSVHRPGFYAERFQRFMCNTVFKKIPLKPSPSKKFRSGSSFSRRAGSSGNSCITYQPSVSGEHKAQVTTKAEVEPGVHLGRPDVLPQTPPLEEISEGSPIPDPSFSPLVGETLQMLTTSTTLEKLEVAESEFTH

For `COCC(=O)NC/C=C/c1ccc2ncnc(Nc3ccc(Oc4ccc(C)nc4)c(C)c3)c2c1` [CP-724714], the % of control in series [1] was 100%. `Cc1cc(F)c(C(=O)Nc2cccc(-c3nncn3C(C)C)n2)cc1-n1cnc(C2CC2)c1`: the figures for the % of control in series [2] and in [3] were 100% and 97%, respectively. Regarding `CC[C@@H]1[C@H](F)C(=O)N[C@@H]1COc1nccc2cc(C(N)=O)c(OC)cc12` [ZIMLOVISERTIB], the % of inhibition in series [4] is -8.1%.

As for `CN(C(=O)c1cnn2cccnc12)c1cc2c(cc1N1CCOCC1)C(=O)N(C[C@@H](F)C(C)(C)O)C2`, the dTM in series [5] is 0 K.

Regarding `C=CC(=O)Nc1cccc(C(=O)Nc2ccc(Nc3cc(-c4[nH]c(SC)nc4C)ccn3)cc2)c1`, the % of control in [6] (at 1 µM) was 102%; in [6] (at 5 µM), 103%. In the case of `COc1cc(Nc2nc(C)cc(-c3cnn4nc(OC)ccc34)n2)cc(C(F)(F)F)c1`, the % of control in series [7] amounted to 83%. Regarding `CN(C)CCOc1ccc(-c2nc(-c3ccncc3)c(-c3ccc4c(c3)CC/C4=N\O)[nH]2)cc1`, the % of control in series [8] came out at 87%. For the compound `O[C@H]1CC[C@H](Nc2ncc3nc(Nc4c(F)cc(F)cc4F)n([C@H]4CCOC4)c3n2)CC1`, the figures for the % of control in series [9] and in [10] were 100% and 93%, respectively.

Turning to `Cc1cc(C)cc([C@@H]2c3cc(C)ccc3NC(=O)CN2C(=O)c2ccc(Br)s2)c1`, the “% of inhibition” value in [11] is recorded as -8%. As for `Nc1cnc(N2CCc3cc(S(=O)(=O)Nc4c(F)cc(Cl)cc4F)cc(N4CCCC4=O)c32)nc1` [TP-020n], the % of inhibition in series [12] was -3.82%.

Turning to `COc1cc(N(C)c2ccnc3ccc(C(F)(F)F)cc23)cc(OC)c1OC`, the % binding amounted to 76% in series [13] and 100% in [14].
